Data: paper PMC7901654, “Bioisosteric Discovery of NPA101.3, a Second-Generation RET/VEGFR2 Inhibitor Optimized for Single-Agent Polypharmacology” (Journal of Medicinal Chemistry, 2020)

Columns and labels:
Format in all cases: cell-based
[1] = system: NIH3T3 RET/C634Y cells; assay: Phosphorylation and signalling Western blot in NIH3T3 RET/C634Y cells; details: 10.0 nM, 2 h
Method: (§1) Protein lysates were prepared according to standard procedures. Briefly, cells were lysed in a buffer containing 50 mM N-2-hydroxyethylpiperazine-N′-2-ethanesulfonic acid (HEPES; pH 7.5), 1% (v/v) Triton X-100, 150 mM NaCl, 5 mM EGTA, 50 mM NaF, 20 mM sodium pyrophosphate, 1 mM sodium vanadate, 2 mM phenylmethanesulfonyl fluoride (PMSF), and 1 μg/mL aprotinin. Lysates were clarified by centrifugation at 10000g for 15 min. […] Immune complexes were detected with the enhanced chemiluminescence kit (Amersham Pharmacia Biotech, Little Chalfont, U.K.). Anti-phospho-SHC (#Y317), which recognizes SHC protein when phosphorylated on Y317, was from Upstate Biotechnology Inc. (Lake Placid, NY). Anti-SHC (H-108) was from Santa Cruz Biotechnology (Santa Cruz, CA). Anti-MAPK (9101) and anti-phospho-MAPK (9102), specific for p42/44MAPK (ERK1/2) phosphorylated on Thr202/Tyr204, antibodies were from Cell Signaling Technologies (Danvers, MA). Anti-phospho-VEGFR2/KDR (2478), specific for VEGFR2/KDR phosphorylated on Tyr1175, and anti-VEGFR2/KDR (2479) were from Cell Signaling Technologies. Anti-phospho-p70S6K (9234), specific for p70S6K phosphorylated on Thr389, and anti-p70S6K (2708) were from Cell Signaling Technologies. […]

[2] = system: RET (either transfected or endogenously expressing) mutant cells; assay: Growth inhibition, all RET mutant cells (summary); details: range over transfected and endogenously expressing cells; read-out: IC50, growth inhibitory effect on RET mutant cells
Method: Finally, NPA101.3 featured efficacy already at 1 mg/kg/day in RET-driven tumors in nude mice. […] Therefore, though in a therapeutic setting toxicity may be increased by hitting multiple targets, it is feasible that the activity of the NPA101.3 against RET-driven tumors may take advantage of a synergistic combination of cell autonomous (on tumor cell growth mediated by RET inhibition) and non-cell autonomous (on blood vessel formation mediated by VEGFR2 inhibition) effects, potentiating its effect and reducing the chances of resistance development. Several TKIs with anti-RET activity are available, and some are already registered for the treatment of different types of thyroid cancers. […]
Nthy-ory-3-1 (10000 per well), TPC-1 (10000 per well), MZ-CRC-1 (100000 per well), TT (200000 per well), Lc-2/ad (100000 per well), BCPAP (10000 per well), 8505-C (10000 per well), PC-9 (10000 per well), A549 (10000 per well), CALU-1 (10000 per well), NIH3T3 RET/C634Y (10000 per well), and NIH3T3 HRAS/G12V (10000 per well) were seeded in six-well tissue culture plates. […] Cells were counted every day (Ba/F3), every 2 days (fibroblasts), or every 2–3 days (human cell lines). […] IC50 doses were calculated through a curve fitting analysis from last day of growth curves using the PRISM software program (Graphpad Software Inc.).

[3] = system: TT (RET/C634W), MZ-CRC-1 (RET/M918T), TPC-1 (CCDC6-RET); assay: RET autophosphorylation and SHC/MAPK signalling in RET mutant human cancer cell lines; details: 2 h treatment
Method: NPA101.3 inhibited RET autophosphorylation and signaling along the SHC/MAPK pathway in human cancer cell lines endogenously expressing RET oncogenic variants, including MTC cell lines, TT (RET/C634W) and MZ-CRC-1 (RET/M918T), and PTC cell line TPC-1 (CCDC6-RET); in the lung adenocarcinoma cell line Lc-2/ad (CCDC6-RET), only RET and SHC (but not MAPK) dephosphorylation was detectable (Figure S4).
as §1, with “MA).” for “MA). Anti-phospho-VEGFR2/KDR (2478), specific for VEGFR2/KDR phosphorylated on Tyr1175, and anti-VEGFR2/KDR (2479) were from Cell Signaling Technologies. Anti-phospho-p70S6K (9234), specific for p70S6K phosphorylated on Thr389, and anti-p70S6K (2708) were from Cell Signaling Technologies.”

Compound: CC(C)(C)c1cc(NC(=O)Cc2ccc(-n3cnc4cc(-c5ccc(S(C)(=O)=O)cc5)ccc43)cc2)no1 [NPA101.3]
- phosphorylation of MAPK [1]: attenuated
- phosphorylation of RET and SHC [1]: almost completely inhibited
- IC50 [2]: 0.67 to 4.17 nM
- RET autophosphorylation and signaling along the SHC/MAPK pathway [3]: inhibited
